In patent US8192962B2, “Processes for detecting toxic substances” (Daikin Industries, Ltd., priority 2001, dated 2012):

System: Mitochondria-located protein genes
Test: DNA chip mRNA expression in yeast, mitochondria-located protein genes (Table 2)
Format: cell-based, Saccharomyces cerevisiae S288C
Conditions: cells incubated two hours with the chemical substance
Outline: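 Whole-genome yeast DNA chip hybridization (65° C., >12 h) of Cy-labeled cDNA from S288C cells exposed 2 h at 25° C. to a sub-lethal toxicant dose in YPD; value is intensity relative to chemical-free control.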

Measured: The level of expressed mRNA in the presence of chemical substance/The level of expressed mRNA in the absence of chemical substance

COc1cc(CNC(=O)CCCCC=CC(C)C)ccc1O [(12), 8-methyl-N-vanillyl-6-nonenamide]
1.9: yeast gene YGR244C | yeast gene YKL142W
0.6: yeast gene YDR529C | yeast gene YEL039C | yeast gene YKL194C | yeast gene YLR038C | yeast gene YLR395C | yeast gene YNL256W
2.0: yeast gene YGR008C
1.1: yeast gene YBR251W | yeast gene YCR046C | yeast gene YCR083W | yeast gene YDR079W | yeast gene YDR231C | yeast gene YDR298C | yeast gene YNL104C | yeast gene YOR316C | yeast gene YPL135W | yeast gene YPL262W
1.3: yeast gene YBR221C | yeast gene YDR178W | yeast gene YER178W | yeast gene YMR152W | yeast gene YNL071W | yeast gene YOR176W
0.8: yeast gene YBR003W | yeast gene YBR044C | yeast gene YBR091C | yeast gene YBR282W | yeast gene YDR347W | yeast gene YEL024W | yeast gene YGL187C | yeast gene YGR082W | yeast gene YJL102W | yeast gene YJL133W | yeast gene YJL180C | yeast gene YJR121W | yeast gene YKL141W | yeast gene YKL148C | yeast gene YKL170W | yeast gene YLL041C | yeast gene YML129C | yeast gene YMR089C | yeast gene YMR267W | yeast gene YOR020C | yeast gene YOR100C | yeast gene YOR142W | yeast gene YOR150W | yeast gene YOR187W | yeast gene YPL134C | yeast gene YPR024W
1.0: yeast gene YBL099W | yeast gene YCL057W | yeast gene YDL067C | yeast gene YFL016C | yeast gene YGL018C | yeast gene YGR062C | yeast gene YGR076C | yeast gene YJL096W | yeast gene YJR045C | yeast gene YJR077C | yeast gene YKL016C | yeast gene YLR304C
1.2: yeast gene YDL198C | yeast gene YOL096C | yeast gene YOR037W
1.8: yeast gene YDR258C | yeast gene YML054C
0.9: yeast gene YBL022C | yeast gene YBL030C | yeast gene YDL181W | yeast gene YDR377W | yeast gene YGL191W | yeast gene YGR174C | yeast gene YKR066C | yeast gene YLR348C | yeast gene YML120C | yeast gene YOR130C | yeast gene YPL040C | yeast gene YPR037C | yeast gene YPR047W | yeast gene YPR134W
0.7: yeast gene YBL038W | yeast gene YBR122C | yeast gene YBR185C | yeast gene YHR008C | yeast gene YJL166W | yeast gene YKL003C | yeast gene YLR259C | yeast gene YMR023C | yeast gene YMR083W | yeast gene YMR203W | yeast gene YNL073W | yeast gene YPL215W
0.5: yeast gene YLR295C | yeast gene YMR035W
1.5: yeast gene YGR028W
1.7: yeast gene YNL055C
1.4: yeast gene YAL039C | yeast gene YIL155C
